The text below walks through data of patent publication EP0973746B1, “SUBSTITUTED 3-CYANO QUINOLINES” (Wyeth Holdings Corporation, priority 1997, dated 1998).

pIC50: −log10 of the molar value. Values after ≈ are worked out from the molar mass of the structure shown. Read-outs that look alike come from different tables or passages of the source.

One assay relates to LX1. Kind of assay: Inhibition of cancer cell growth as measured by cell number, LX1. The assay is classed as cell-based. The conditions noted are these: Homo sapiens, LX-1; cell number, Sulforhodamine B, 48 hours exposure; Table 6; read-out: IC50 LX1.
The subject of assay [1] is A431. Kind of assay: Inhibition of cancer cell growth as measured by cell number, A431.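 Note: human A431 line, picked because it overexpresses epidermal growth factor receptor (EGFR).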 In kind it is cell-based, human. As to conditions: Homo sapiens, A-431, 48 h, cell number, Sulforhodamine B, 48 hours exposure, read-out: IC50 A431.
Source text: (§1) The cell lines were chosen since they overexpressed epidermal growth factor receptor (EGFR) (i.e. A431) or HER2/neu (SKBR3), or had little to no expression of the these receptors (SW620, LOX, MCF7).
The test system of another assay is HCT15. Kind of assay: Inhibition of cancer cell growth as measured by cell number, HCT15. In kind it is cell-based. As to conditions: Homo sapiens, HCT-15; cell number, Sulforhodamine B, 48 hours exposure; Table 5; read-out: IC50 HCT15.
The test system of a further assay is LNCAP. The experiment in a line: Inhibition of cancer cell growth as measured by cell number, LNCAP. In kind it is cell-based. The conditions noted are these: Homo sapiens, cell number, Sulforhodamine B, 48 hours exposure, Table 7, read-out: IC50 LNCAP.
The test system of assay [2] is SKBR3. Kind of assay: Inhibition of cell growth by incorporation of [3H]-thymidine, SKBR3. The assay is classed as cell-based, human.
Procedure: (§2) Representative compounds of this invention were evaluated for their ability to inhibit the growth of the cell lines described below in vitro. The inhibition is quantitated by measuring the decrease in the incorporation of radio-labeled thymidine when the cells are grown in the presence of the inhibitor. […] Cells were routinely grown in a humidified incubator in 5% CO2 in air.
(§3) Cells were seeded at 10,000 cells/well in 96 well plates in complete media and allowed to grow to log phase. At this stage the complete media was replaced with media containing 0.5% FBS (for cells growing in 10% FBS) or media lacking epidermal growth factor (EGF) (for cells growing in serum free media). […] Media with test compound was then removed and complete media was added back. The cells were allowed to grow for 18 hours. This is followed by incubation in [^3H]thymidine (1mCi/ml in serum/EGF media) for 4 hours. Cells were lysed in 0.5 M NaOH for at least 30 min at 37°C and radioactivity analyzed.
(§4) The % inhibition of the compound evaluated was determined for at least three different concentrations and the IC50 value evaluated from the dose response curve. […] CPM(control) is in units of counts per minute and is a number expressing the amount of [^3H]thymidine incorporated onto the DNA when cells are grown in the absence of test compound as measured by liquid scintillation counting.
The test system of a further assay is T47D. Kind of assay: Inhibition of cancer cell growth as measured by cell number, T47D. The assay is classed as cell-based. As to conditions: Homo sapiens, cell number, Sulforhodamine B, 48 hours exposure, Table 6, read-out: IC50 T47D.
The next assay relates to HL60. Kind of assay: Inhibition of cancer cell growth as measured by cell number, HL60. The assay is classed as cell-based. The conditions noted are these: Homo sapiens, HL-60; cell number, Sulforhodamine B, 48 hours exposure; Table 7; read-out: IC50 HL60.
In a further assay the test system is CCRF-CFM. Kind of assay: Inhibition of cancer cell growth as measured by cell number, CCRF-CFM. The assay is classed as cell-based. The conditions noted are these: Homo sapiens; cell number, Sulforhodamine B, 48 hours exposure; Table 7; read-out: IC50 CCRF-CFM.
Another assay has as its system LOX. Kind of assay: Inhibition of cancer cell growth as measured by cell number, LOX.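 Note: LOX cells served as a line with low or absent EGFR and HER2/neu expression, in contrast to receptor-overexpressing lines.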 The assay is classed as cell-based, human. As to conditions: Homo sapiens, LOX, 48 h, cell number, Sulforhodamine B, 48 hours exposure, read-out: IC50 LOX.
Another assay concerns HTB161. The experiment in a line: Inhibition of cancer cell growth as measured by cell number, HTB161. The conditions noted are these: Homo sapiens; cell number, Sulforhodamine B, 48 hours exposure; Table 4; read-out: IC50 HTB161. In kind it is cell-based.
The test system of the next assay is COLO205. The experiment in a line: Inhibition of cancer cell growth as measured by cell number, COLO205. In kind it is cell-based. As to conditions: Homo sapiens, COLO 205; cell number, Sulforhodamine B, 48 hours exposure; Table 4; read-out: IC50 COLO205.
For another assay, the system named is B7474. Kind of assay: Inhibition of cancer cell growth as measured by cell number, B7474. In kind it is cell-based. The conditions noted are these: Homo sapiens; cell number, Sulforhodamine B, 48 hours exposure; Table 6; read-out: IC50 B7474.
A further assay relates to DU145. The experiment in a line: Inhibition of cancer cell growth as measured by cell number, DU145. As to conditions: Homo sapiens, DU-145; cell number, Sulforhodamine B, 48 hours exposure; Table 7; read-out: IC50 DU145. The assay is classed as cell-based.
Another assay concerns NEC. The experiment in a line: Inhibition of cancer cell growth as measured by cell number, NEC. In kind it is cell-based. As to conditions: Homo sapiens; cell number, Sulforhodamine B, 48 hours exposure; Table 6; read-out: IC50 NEC.
Assay [3] addresses epidermal growth factor receptor kinase (Homo sapiens, UniProt P00533). Kind of assay: biochemical.
A further assay concerns LS174T. Kind of assay: Inhibition of cancer cell growth as measured by cell number, LS174T. The assay is classed as cell-based. The conditions noted are these: Homo sapiens, cell number, Sulforhodamine B, 48 hours exposure, Table 5, read-out: IC50 LS174T.
The next assay relates to CX1. The experiment in a line: Inhibition of cancer cell growth as measured by cell number, CX1. In kind it is cell-based. The conditions noted are these: Homo sapiens, CX-1; cell number, Sulforhodamine B, 48 hours exposure; Table 4; read-out: IC50 CX1.
The next assay deals with PC3. Kind of assay: Inhibition of cancer cell growth as measured by cell number, PC3. The assay is classed as cell-based. As to conditions: Homo sapiens, PC-3; cell number, Sulforhodamine B, 48 hours exposure; Table 7; read-out: IC50 PC3.
The subject of a further assay is CACO2. Kind of assay: Inhibition of cancer cell growth as measured by cell number, CACO2. The assay is classed as cell-based. As to conditions: Homo sapiens, Caco-2; cell number, Sulforhodamine B, 48 hours exposure; Table 5; read-out: IC50 CACO2.
Another assay relates to CCL228. Kind of assay: Inhibition of cancer cell growth as measured by cell number, CCL228. The conditions noted are these: Homo sapiens; cell number, Sulforhodamine B, 48 hours exposure; Table 5; read-out: IC50 CCL228. In kind it is cell-based.
For a further assay, the system named is NEU-3T3. The experiment in a line: Inhibition of cell growth by incorporation of [3H]-thymidine, Neu-3T3. The assay is classed as cell-based, mouse. As to conditions: [3H]-thymidine incorporation. In general terms: Dividing cells build labelled thymidine or BrdU into new DNA.
Another assay deals with A2780DDP. Kind of assay: Inhibition of cancer cell growth as measured by cell number, A2780DDP. The assay is classed as cell-based. The conditions noted are these: Homo sapiens; cell number, Sulforhodamine B, 48 hours exposure; Table 4; read-out: IC50 A2780DDP.
Another assay relates to NHEK. Kind of assay: Inhibition of cell growth by incorporation of [3H]-thymidine, NHEK. The conditions noted are these: [3H]-thymidine incorporation, read-out: IC50 NHEK. The assay is classed as cell-based, human.
In assay [4] the test system is A431. The experiment in a line: Inhibition of cell growth by incorporation of [3H]-thymidine, A431. As to conditions: [3H]-thymidine incorporation, A431, read-out: IC50 A431. The assay is classed as cell-based, human.
The next assay relates to SW620. Kind of assay: Inhibition of cancer cell growth as measured by cell number, SW620.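 Note: SW620 was included as a cell line with little or no EGFR or HER2/neu expression, in contrast to receptor-overexpressing lines.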 The assay is classed as cell-based, human. As to conditions: Homo sapiens, SW-620, 48 h, cell number, Sulforhodamine B, 48 hours exposure, read-out: IC50 SW620.
Another assay has as its system SW948. Kind of assay: Inhibition of cancer cell growth as measured by cell number, SW948. The assay is classed as cell-based. As to conditions: Homo sapiens, SW948; cell number, Sulforhodamine B, 48 hours exposure; Table 5; read-out: IC50 SW948.
Another assay deals with MIP. The experiment in a line: Inhibition of cancer cell growth as measured by cell number, MIP. In kind it is cell-based. The conditions noted are these: Homo sapiens; cell number, Sulforhodamine B, 48 hours exposure; Table 4; read-out: IC50 MIP.
A further assay deals with A27805. The experiment in a line: Inhibition of cancer cell growth as measured by cell number, A27805. The assay is classed as cell-based. The conditions noted are these: Homo sapiens; cell number, Sulforhodamine B, 48 hours exposure; Table 4; read-out: IC50 A27805.
The next assay has as its system A549. The experiment in a line: Inhibition of cancer cell growth as measured by cell number, A549. As to conditions: Homo sapiens, A549; cell number, Sulforhodamine B, 48 hours exposure; Table 6; read-out: IC50 A549. In kind it is cell-based.
Assay [5] concerns SKBR3. The experiment in a line: Inhibition of cancer cell growth as measured by cell number, SKBR3.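 Note: SK-BR-3 cells were selected as a line overexpressing HER2/neu.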 In kind it is cell-based, human. As to conditions: Homo sapiens, SK-BR-3; cell number, Sulforhodamine B, 48 hours exposure; Table 8; read-out: IC50 SKBR3.
Source text: as §1
The test system of a further assay is MCF7. The experiment in a line: Inhibition of cancer cell growth as measured by cell number, MCF7.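 Note: MCF7 was included as a line with little or no EGFR or HER2/neu expression, in contrast to the receptor-overexpressing lines of the panel.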 As to conditions: Homo sapiens, MCF7, 48 h, cell number, Sulforhodamine B, 48 hours exposure, read-out: IC50 MCF7. The assay is classed as cell-based, human.
Where [6] appears, read: Homo sapiens, SK-BR-3, [3H]-thymidine incorporation.

Chain of epidermal growth factor receptor kinase (P00533 25-1210): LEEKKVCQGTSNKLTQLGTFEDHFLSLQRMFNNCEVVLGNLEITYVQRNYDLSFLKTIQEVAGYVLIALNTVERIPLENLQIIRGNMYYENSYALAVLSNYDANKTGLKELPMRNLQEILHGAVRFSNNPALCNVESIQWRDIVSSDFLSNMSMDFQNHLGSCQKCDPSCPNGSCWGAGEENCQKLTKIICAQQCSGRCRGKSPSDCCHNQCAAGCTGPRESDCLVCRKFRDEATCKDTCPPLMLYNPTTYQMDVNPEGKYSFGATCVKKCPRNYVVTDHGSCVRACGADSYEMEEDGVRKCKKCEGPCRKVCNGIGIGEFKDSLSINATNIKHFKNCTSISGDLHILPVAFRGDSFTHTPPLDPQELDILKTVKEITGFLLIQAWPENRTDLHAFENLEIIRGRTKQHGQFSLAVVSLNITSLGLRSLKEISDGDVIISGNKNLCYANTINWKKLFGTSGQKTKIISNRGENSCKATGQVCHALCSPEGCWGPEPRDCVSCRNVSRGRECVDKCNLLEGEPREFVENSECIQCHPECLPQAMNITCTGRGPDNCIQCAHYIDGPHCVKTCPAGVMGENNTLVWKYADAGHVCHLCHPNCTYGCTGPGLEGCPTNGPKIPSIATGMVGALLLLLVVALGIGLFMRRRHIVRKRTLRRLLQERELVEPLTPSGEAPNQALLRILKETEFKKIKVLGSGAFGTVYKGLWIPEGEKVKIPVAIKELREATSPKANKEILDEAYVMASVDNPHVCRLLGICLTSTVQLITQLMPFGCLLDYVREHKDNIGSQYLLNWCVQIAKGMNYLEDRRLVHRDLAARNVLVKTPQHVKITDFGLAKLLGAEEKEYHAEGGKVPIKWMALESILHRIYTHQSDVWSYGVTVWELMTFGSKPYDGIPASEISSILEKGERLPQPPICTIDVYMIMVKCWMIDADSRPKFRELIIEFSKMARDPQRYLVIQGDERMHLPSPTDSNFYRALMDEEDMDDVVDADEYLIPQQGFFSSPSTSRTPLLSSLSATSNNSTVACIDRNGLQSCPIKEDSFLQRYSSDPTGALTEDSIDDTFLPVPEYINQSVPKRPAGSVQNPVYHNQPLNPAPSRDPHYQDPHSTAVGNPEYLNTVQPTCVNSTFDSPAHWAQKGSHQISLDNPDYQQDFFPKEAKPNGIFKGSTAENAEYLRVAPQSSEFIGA
Source text for LOX: as §1
Source text for MCF7: as §1
Procedure for NEU-3T3: as §2, §3, §4
Source text for SW620: as §1

As a reminder, the IC50 is the concentration that gives 50% inhibition. By pIC50 is commonly meant −log10 of the IC50, conventionally taken in molar units. As for `CC#CC(=O)Nc1ccc2ncc(C#N)c(Nc3ccc(Br)c(Br)c3)c2c1` [Example 22, N-[4-[(3,4-dibromophenyl)amino]-3-cyano-6-quinolinyl]-2-butynamide], the concentration for half-maximal inhibition (IC50) with LX1 turned out to be 0.81 µg/mL (≈ 1.67 µM); in the assay with A431 [1] (Table 6) it was 0.0443 µg/mL (≈ 0.0915 µM); with HCT15, 0.372 µg/mL (≈ 0.769 µM); with LNCAP, 0.722 µg/mL (≈ 1.49 µM); in the assay with T47D it was 0.704 µg/mL (≈ 1.45 µM); in the assay on HL60, 0.608 µg/mL (≈ 1.26 µM). Also, the IC50 amounted to 0.403 µg/mL (≈ 0.833 µM) with CCRF-CFM; 0.0225 µg/mL (≈ 0.0465 µM) with LOX (Table 6); 0.248 µg/mL (≈ 0.512 µM) in the assay on HTB161; 4.3 µg/mL (≈ 8.89 µM) in the assay on COLO205; 0.314 µg/mL (≈ 0.648 µM) in the assay on B7474; 0.265 µg/mL (≈ 0.548 µM) with DU145. Also, the IC50 in the assay on NEC came to 0.492 µg/mL (≈ 1.02 µM); with LS174T, 0.847 µg/mL (≈ 1.75 µM); with CX1, 0.775 µg/mL (≈ 1.6 µM); in the assay on PC3, 0.695 µg/mL (≈ 1.44 µM); in the assay with CACO2, 0.475 µg/mL (≈ 0.982 µM); in the assay with CCL228 it was 0.255 µg/mL (≈ 0.527 µM). Besides, the IC50 with A2780DDP was 0.211 µg/mL (≈ 0.436 µM); with SW620 (Table 4), 0.526 µg/mL (≈ 1.09 µM); in the assay with SW948, 0.593 µg/mL (≈ 1.23 µM); in the assay with MIP, 0.378 µg/mL (≈ 0.782 µM); in the assay with A27805, 0.0567 µg/mL (≈ 0.117 µM); in the assay on A549 it was 0.375 µg/mL (≈ 0.775 µM). Moreover, the pIC50 in the assay on SKBR3 [2] (setting [6]) is under 4.30; in assay [3], 5.52; in the assay with NEU-3T3 (Mus musculus), under 4.30; with NHEK (Homo sapiens) it was 7.46; with A431 [4] (Homo sapiens, A-431), 6.82.
As to `CCOC(=O)c1cnc2cc(OC)c(OC)cc2c1O` [Example 26, 3-Carbethoxy-4-hydroxy-6.7-dimethoxyquinoline], the negative-log IC50 (pIC50) is under 4.30 with SKBR3 [2] ([3H]-thymidine incorporation), under 4.30 with NEU-3T3, 6.40 in the assay with NHEK and 7.00 in the assay with A431 [4].
Consider `COc1cc2ncc(C#N)c(Nc3cccc(Br)c3)c2cc1OC` [Example 31, 4-[(3-Bromophenyl)amino]-6,7-dimethoxy-3-quinolinecarbonitrile], for which the IC50 came to 0.48 µg/mL (≈ 1.25 µM) in the assay on SKBR3 [5]; 6.88 µg/mL (≈ 17.9 µM) in the assay with LX1; 0.434 µg/mL (≈ 1.13 µM) with A431 [1] (Table 6); 0.1 µg/mL (≈ 0.26 µM) with A431 [1] (Table 8); 5.66 µg/mL (≈ 14.7 µM) in the assay with MCF7 (Table 5); 6.04 µg/mL (≈ 15.7 µM) in the assay with MCF7 (Table 8). Besides, the IC50 was 0.727 µg/mL (≈ 1.89 µM) with HCT15; 0.772 µg/mL (≈ 2.01 µM) in the assay on LNCAP; 3.33 µg/mL (≈ 8.67 µM) with T47D; 0.894 µg/mL (≈ 2.33 µM) in the assay with HL60; 3.19 µg/mL (≈ 8.3 µM) with CCRF-CFM; 0.871 µg/mL (≈ 2.27 µM) with LOX (Table 6). For the same compound, the IC50 turned out to be 1.65 µg/mL (≈ 4.29 µM) in the assay with LOX (Table 8); 0.793 µg/mL (≈ 2.06 µM) in the assay on HTB161; 3.1 µg/mL (≈ 8.06 µM) in the assay on COLO205; 1.58 µg/mL (≈ 4.1 µM) in the assay on B7474; 0.585 µg/mL (≈ 1.52 µM) in the assay on DU145; 2.23 µg/mL (≈ 5.81 µM) in the assay on NEC. Further, the IC50 with LS174T turned out to be 0.885 µg/mL (≈ 2.3 µM); in the assay on CX1, 0.97 µg/mL (≈ 2.52 µM); in the assay with PC3, 5.16 µg/mL (≈ 13.4 µM); in the assay on CACO2, 0.925 µg/mL (≈ 2.41 µM); in the assay with CCL228, 4.91 µg/mL (≈ 12.8 µM); with A2780DDP it was 1.17 µg/mL (≈ 3.03 µM). Further, the IC50 in the assay on SW620 (Table 4) was found to be 4.54 µg/mL (≈ 11.8 µM); with SW620 (Table 8), 0.82 µg/mL (≈ 2.13 µM); in the assay with SW948, 5.48 µg/mL (≈ 14.3 µM); in the assay with MIP it was 0.748 µg/mL (≈ 1.95 µM); in the assay on A27805, 2.03 µg/mL (≈ 5.28 µM); in the assay on A549 it was 2.27 µg/mL (≈ 5.91 µM). Besides, the pIC50 with SKBR3 [2] (setting [6]) is 4.60; in assay [3], 8.82; in the assay with NHEK (Homo sapiens), 8.52; with A431 [4] (Homo sapiens, A-431) it was 6.70.
